The test has as its target T1, DNA-3-methyladenine glycosylase 1 (Escherichia coli (strain K12), UniProt P05100).
T1 sequence (P05100 whole entry): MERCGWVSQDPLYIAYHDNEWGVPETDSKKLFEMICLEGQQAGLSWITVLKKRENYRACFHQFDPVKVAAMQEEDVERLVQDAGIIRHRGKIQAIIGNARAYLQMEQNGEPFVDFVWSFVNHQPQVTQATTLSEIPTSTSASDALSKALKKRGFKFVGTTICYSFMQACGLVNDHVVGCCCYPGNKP
The test can be described thus: Inhibition of Escherichia coli DNA-3-methyladenine glycosylase 1.

Molecule `Nc1ncn(Cc2ccccc2)c2ncnc1-2` [3-BENZYLADENINE] gave an IC50 of 0.4 µM.
`CCCCn1cnc(N)c2ncnc1-2` [3-BUTYLADENINE]: 2.3 µM corresponded to half-maximal inhibition (IC50).
In turn, `CCn1cnc(N)c2ncnc1-2` [3-ETHYLADENINE] came in with an IC50 of 50 µM.
The same measure for `Cn1cnc(N)c2ncnc1-2` [3-METHYLADENINE]: 1500 µM; for `CCCn1cnc(N)c2ncnc1-2` [3-PROPYLADENINE]: 5 µM.

In general, IC50 refers to the concentration needed to halve the response being measured. Read a low IC50 as higher potency.

Source of the values: ChEMBL document CHEMBL3046707, “Cheminformatic designing of de novo inhibitors to 3-methyl adenine DNA glycosylase I (LiTagA) from Leptospira interrogans serovar lai strain 56601” (Med Chem Res, 2013).
